The text below walks through data of publication PMC3831292 (Frontiers in Pharmacology, 2013).

Common to all, as to experiment: two-electrode voltage clamp, Xenopus oocytes
Common to all, as to assay type: cell-based
A general note: Two-electrode voltage clamp holds a large cell at a set potential and records current.

One test has as its target T1, hTASK-1 (K2P3.1, KCNK3) (Homo sapiens, UniProt O14649).
T1 construct: full-length cDNA in pIRES-CD8 vector; cRNA injected into Xenopus laevis oocytes
The conditions noted are these: read-out: TASK-1. The text has this:
two-electrode voltage clamp, Xenopus oocytes on hTASK-1 (K2P3.1, KCNK3)

The target in the next test is T2, hTRESK (K2P18.1, KCNK18) (Homo sapiens, UniProt Q7Z418).
T2 construct: full-length cDNA in plasmid pEXO; cRNA injected into Xenopus laevis oocytes
T2 sequence (Q7Z418 1-384): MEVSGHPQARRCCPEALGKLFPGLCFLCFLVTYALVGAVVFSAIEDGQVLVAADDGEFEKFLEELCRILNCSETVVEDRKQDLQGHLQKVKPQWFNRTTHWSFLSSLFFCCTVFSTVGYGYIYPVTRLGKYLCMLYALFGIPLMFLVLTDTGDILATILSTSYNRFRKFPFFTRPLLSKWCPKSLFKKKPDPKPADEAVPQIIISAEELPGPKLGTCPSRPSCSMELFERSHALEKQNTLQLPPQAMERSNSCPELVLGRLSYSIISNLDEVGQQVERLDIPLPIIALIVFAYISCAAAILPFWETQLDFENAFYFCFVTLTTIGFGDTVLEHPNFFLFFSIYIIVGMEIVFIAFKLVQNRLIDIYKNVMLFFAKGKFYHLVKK
The conditions noted are these: read-out: TRESK. The text has this: two-electrode voltage clamp, Xenopus oocytes on hTRESK (K2P18.1, KCNK18)

The target of another test is T3, hTASK-3 (K2P9.1, KCNK9) (Homo sapiens, UniProt Q9NPC2).
T3 construct: full-length cDNA in pBR4-TOPO (mutants in pCDNA3); cRNA injected into Xenopus laevis oocytes
T3 sequence (Q9NPC2 whole entry): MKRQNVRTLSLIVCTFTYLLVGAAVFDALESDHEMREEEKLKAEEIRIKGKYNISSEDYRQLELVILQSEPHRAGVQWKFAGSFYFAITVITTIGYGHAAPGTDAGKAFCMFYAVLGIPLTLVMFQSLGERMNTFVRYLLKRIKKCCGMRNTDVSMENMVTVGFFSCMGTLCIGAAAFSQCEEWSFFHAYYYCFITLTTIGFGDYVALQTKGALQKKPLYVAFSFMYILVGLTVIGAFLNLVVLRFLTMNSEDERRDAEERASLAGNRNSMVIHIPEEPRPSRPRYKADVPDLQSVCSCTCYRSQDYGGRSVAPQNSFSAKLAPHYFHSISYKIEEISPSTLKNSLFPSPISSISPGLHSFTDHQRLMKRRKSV
The conditions noted are these: read-out: TASK-3. From the text: two-electrode voltage clamp, Xenopus oocytes on hTASK-3 (K2P9.1, KCNK9)

T1 sequence (O14649 whole entry): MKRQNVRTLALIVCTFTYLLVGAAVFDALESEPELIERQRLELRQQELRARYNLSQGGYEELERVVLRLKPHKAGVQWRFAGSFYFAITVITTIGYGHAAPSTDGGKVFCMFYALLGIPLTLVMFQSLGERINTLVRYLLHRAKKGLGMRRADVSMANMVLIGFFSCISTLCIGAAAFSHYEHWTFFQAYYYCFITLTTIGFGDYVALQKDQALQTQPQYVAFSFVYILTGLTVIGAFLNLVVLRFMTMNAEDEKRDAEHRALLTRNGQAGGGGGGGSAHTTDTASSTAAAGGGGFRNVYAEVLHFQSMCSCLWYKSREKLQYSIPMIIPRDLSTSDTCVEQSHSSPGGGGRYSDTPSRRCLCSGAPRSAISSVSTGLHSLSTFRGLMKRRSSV

With `CCCCC[C@H](O)CC(=O)CCc1ccc(O)c(OC)c1` [6-gingerol], the IC50 is 227 ± 46.5 µM on hTASK-1 (K2P3.1, KCNK3); 155 ± 70.9 µM at hTRESK (K2P18.1, KCNK18); 385 ± 55.6 µM at hTASK-3 (K2P9.1, KCNK9).
The like results for `COc1cc(CNC(=O)CCCC/C=C/C(C)C)ccc1O` [capsaicin] were, in that order, 61.1 ± 4 µM, 70.2 ± 5.3 µM and 41.8 ± 3.6 µM.
With `O=C(/C=C/C=C/c1ccc2c(c1)OCO2)N1CCCCC1` [piperine], the IC50 is 231 ± 105 µM on hTRESK (K2P18.1, KCNK18) and 133 ± 5.9 µM on hTASK-3 (K2P9.1, KCNK9).
`CC1(C)CCC[C@]2(C)[C@@H](C=O)C(C=O)=CC[C@@H]12` [polygodial]: the IC50 turned out to be 485 ± 18.2 µM at hTASK-1 (K2P3.1, KCNK3) and 328 ± 24.7 µM on hTASK-3 (K2P9.1, KCNK9).
